Experiments:
Sagittaria pygmaea, L. = assay: Preemergence weed control under flooded paddy conditions, SAGPY (Arrowhead (Pygmaea)); format: in vivo; details: preemergence, flooded paddy, rated three to four weeks after treatment
[1] = tested on: Monochoria vaginalis, Presl.; assay: Preemergence weed control under flooded paddy conditions, MOOVA (Monochoria); format: in vivo; details: preemergence, flooded paddy, rated three to four weeks after treatment
Cyperus iria = assay: Preemergence weed control under flooded paddy conditions, CYPIR (Rice Flatsedge); format: in vivo; details: preemergence, flooded paddy, rated three to four weeks after treatment
[2] = tested on: Echinochloa oryzoides (Ard.) Fritsch.; assay: Preemergence weed control under flooded paddy conditions, ECHORC (Watergrass (Calif.)); format: in vivo; details: preemergence, flooded paddy, rated three to four weeks after treatment
[3] = tested on: Cyperus serotinus, Rottb.; assay: Preemergence weed control under flooded paddy conditions, CYPSE (Flatsedge); format: in vivo; details: preemergence, rated three to four weeks after treatment
[4] = tested on: Oryza sativa, (L.) Tebonnet; assay: Rice tolerance to post-transplant applications under flooded paddy conditions (Example 187), ORYSAT (Rice, Tebonnet); details: rated three to four weeks after treatment
Note: meaning of each grade not given here.

SMILES | herbicidal effect rating, SAGPY (Sagittaria pygmaea, L.; Rate 0.0320 kg/ha) | herbicidal effect rating, SAGPY (Sagittaria pygmaea, L.; Rate 0.0620 kg/ha) | herbicidal effect rating, SAGPY (Sagittaria pygmaea, L.; Rate 0.1250 kg/ha) | herbicidal effect rating, SAGPY (Sagittaria pygmaea, L.; Rate 0.2500 kg/ha) | herbicidal effect rating, MOOVA ([1]; Rate 0.0320 kg/ha) | herbicidal effect rating, MOOVA ([1]; Rate 0.0620 kg/ha) | herbicidal effect rating, MOOVA ([1]; Rate 0.1250 kg/ha) | herbicidal effect rating, MOOVA ([1]; Rate 0.2500 kg/ha) | herbicidal effect rating, CYPIR (Cyperus iria; Rate 0.0320 kg/ha) | herbicidal effect rating, CYPIR (Cyperus iria; Rate 0.0620 kg/ha) | herbicidal effect rating, CYPIR (Cyperus iria; Rate 0.1250 kg/ha) | herbicidal effect rating, CYPIR (Cyperus iria; Rate 0.2500 kg/ha) | herbicidal effect rating, ECHORC ([2]; Rate 0.0320 kg/ha) | herbicidal effect rating, ECHORC ([2]; Rate 0.0620 kg/ha) | herbicidal effect rating, ECHORC ([2]; Rate 0.1250 kg/ha) | herbicidal effect rating, ECHORC ([2]; Rate 0.2500 kg/ha) | herbicidal effect rating, CYPSE ([3]; Rate 0.0320 kg/ha) | herbicidal effect rating, CYPSE ([3]; Rate 0.0620 kg/ha) | herbicidal effect rating, CYPSE ([3]; Rate 0.1250 kg/ha) | herbicidal effect rating, CYPSE ([3]; Rate 0.2500 kg/ha) | other results
CCOCN(C(=O)c1nsc2ccc(-n3c(=O)cc(C(F)(F)F)n(C)c3=O)cc12)S(C)(=O)=O [Example 370, 1,2-Benzisothiazole-3-carboxamide, 5-[3,6-dihydro-3-methyl-2,6-dioxo-4-(trifluoromethyl)-1(2H)-pyrimidinyl]-N-(ethoxymethyl)-N-(methylsulfonyl)-] | 0.0 | 3.0 | 7.0 | 9.0 | 7.0 | 9.0 | 9.0 | 9.0 | 4.0 | 7.0 | 9.0 | 9.0 | 3.0 | 4.0 | 6.0 | 7.0 | 0.0 | 4.0 | 7.0 | 9.0 | herbicidal effect rating ORYSAT ([4]; Rate 0.0320 kg/ha): 3.0; herbicidal effect rating ORYSAT ([4]; Rate 0.0620 kg/ha): 4.0; herbicidal effect rating ORYSAT ([4]; Rate 0.1250 kg/ha): 4.0; herbicidal effect rating ORYSAT ([4]; Rate 0.2500 kg/ha): 5.0
Cn1c(C(F)(F)F)cc(=O)n(-c2cc3c(C(Br)Br)nsc3cc2F)c1=O [Example 372, 2,4(1H,3H)-Pyrimidinedione, 3-[3-(dibromomethyl)-6-fluoro-1,2-benzisothiazol-5-yl]-1-methyl-6-(trifluoromethyl)-] | 8.5 | 9.0 | 9.0 | 9.0 | 9.0 | 9.0 | 9.0 | 9.0 | 8.5 | 9.0 | 9.0 | 9.0 | 9.0 | 9.0 | 9.0 | 9.0 | 1.0 | 5.0 | 8.5 | 9.0 | herbicidal effect rating ORYSAT ([4]; Rate 0.0320 kg/ha): 6.0; herbicidal effect rating ORYSAT ([4]; Rate 0.0620 kg/ha): 8.0; herbicidal effect rating ORYSAT ([4]; Rate 0.1250 kg/ha): 8.0; herbicidal effect rating ORYSAT ([4]; Rate 0.2500 kg/ha): 9.0
Cn1c(C(F)(F)F)cc(=O)n(-c2ccc3snc(C#N)c3c2)c1=O [Example 373, 1,2-Benzisothiazole-3-carbonitrile, 5-[3,6-dihydro-3-methyl-2,6-dioxo-4-(trifluoromethyl)-1(2H)-pyrimidinyl]-] | 5.5 | 8.5 | 9.0 | 9.0 | 9.0 | 9.0 | 9.0 | 9.0 | 6.5 | 9.0 | 9.0 | 9.0 | 6.5 | 9.0 | 9.0 | 9.0 | 2.0 | 5.0 | 7.5 | 8.0 | herbicidal effect rating ORYSAT ([4]; Rate 0.0320 kg/ha): 5.5; herbicidal effect rating ORYSAT ([4]; Rate 0.0620 kg/ha): 6.5; herbicidal effect rating ORYSAT ([4]; Rate 0.1250 kg/ha): 6.0; herbicidal effect rating ORYSAT ([4]; Rate 0.2500 kg/ha): 8.0
CNC(=O)OCc1nsc2ccc(-n3c(=O)cc(C(F)(F)F)n(C)c3=O)cc12 [Example 374, 2,4(1H,3H)-Pyrimidinedione, 3-[3-(hydroxymethyl)1,2-benzisothiazol-5-yl]-1-methyl-6-(trifluoromethyl)-, methylcarbamate (ester)] | 2.0 | 3.0 | 6.0 | 9.0 | 9.0 | 9.0 | 9.0 | 9.0 | 6.0 | 9.0 | 9.0 | 9.0 | 3.0 | 3.0 | 4.0 | 6.0 | 0.0 | 0.0 | 0.0 | 5.0 | herbicidal effect rating ORYSAT ([4]; Rate 0.0320 kg/ha): 4.0; herbicidal effect rating ORYSAT ([4]; Rate 0.0620 kg/ha): 4.0; herbicidal effect rating ORYSAT ([4]; Rate 0.1250 kg/ha): 6.0; herbicidal effect rating ORYSAT ([4]; Rate 0.2500 kg/ha): 7.0

Reference: EP0908457B1, “3-(1,2-benzisothiazol- and isoxazol-5-Y1)-2,4(1H,3H)-pyrimidinedione or thione and 3-(1,2-benzisothiazol- and isoxazol-5-y1)-4(3H)-pyrimidinone or thione herbicidal agents” (BASF AKTIENGESELLSCHAFT, priority 1997, dated 1999)
